Tests used:
fibroblast = test: Cytotoxicity on human cells, automated nuclei counting: fibroblast; assay type: cell-based; conditions: exposed 24 h to 48 h, 0.1 to 25 μM
Summary of the method: (§1)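 Increasing concentrations of each compound were applied to cells seeded 24 hours earlier at 4.10^3 per well, cultured in serum-supplemented (10% fetal calf serum) DMEM or RPMI at 37° C. Effects were measured through automated imaging, against matched DMSO dilutions up to 1%.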

HCT 116 (colon) = test: Cytotoxicity on human cells, automated nuclei counting: HCT 116; assay type: cell-based; conditions: HCT 116 cells, exposed 24 h to 48 h, 0.1 to 25 μM
Summary of the method: as §1

Huh7 (liver) = test: Cytotoxicity on human cells, automated nuclei counting: Huh7; assay type: cell-based; conditions: Huh-7, exposed 24 h to 48 h, 0.1 to 25 μM
Summary of the method: as §1

GSK-3αβ = test: GSK-3 kinase inhibition (GS-1 substrate); conditions: read-out: IC50 μM Kinases GSK3, buffer A, 30° C., 15 μM ATP
CDK1/cyclin B = CDK1/cyclin B kinase inhibition (33P-ATP, histone H1); assay type: biochemical, sea star; conditions: buffer C, 30° C., 15 μM ATP, read-out: IC50 μM Kinases CDK1
Protocol: The protein kinase inhibition activities of the compounds of the invention are tested according to the following general procedure:
Buffer C: 60 mM β-glycerophosphate, 15 mM p-nitrophenyl-phosphate, 25 mM Mops (pH 7.2), 5 mM EGTA, 15 mM mgCl2, 1 mM DTT, 1 mM sodium vanadate and 1 mM phenylphosphate.
The controls were made with suitable dilutions of DMSO.
ATP (3.000 Ci/mmol.; 10 mCi/mL) in a final volume of 30 μL. After 30 mins of incubation at 30° C., 25 μL of supernatant aliquots were deposited on phosphocellulose Whatman P81 paper pieces of 2.5×3 cm, and after 20 seconds, the filters were washed five times (for at least 5 minutes each time) in a solution of 10 mL of phosphoric acid/1 litre of water. The wet filters were counted in the presence of 1 mL of scintillation fluid ACS (Amersham).

Caco (colon) = test: Cytotoxicity on human cells, automated nuclei counting: Caco; assay type: cell-based; conditions: exposed 24 h to 48 h, 0.1 to 25 μM
Summary of the method: as §1

PC3 (prostate) = test: Cytotoxicity on human cells, automated nuclei counting: PC3; assay type: cell-based; conditions: PC-3, exposed 24 h to 48 h, 0.1 to 25 μM
Summary of the method: as §1

MDA-MB 231 (breast) = test: Cytotoxicity on human cells, automated nuclei counting: MDA-MB 231; assay type: cell-based; conditions: MDA-MB 231 cells, exposed 24 h to 48 h, 0.1 to 25 μM
Summary of the method: as §1

CDK5/D25 = target: T1, CDK5/D25 (Homo sapiens, UniProt Q00535); test: CDK5 kinase inhibition (33P-ATP, histone H1); assay type: biochemical; conditions: buffer C, 30° C., 15 μM ATP, read-out: IC50 μM Kinases CDK5
T1 construct: made in house
Summary of the method: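 Kinase reactions ran in buffer C (25 mM Mops pH 7.2, 15 mM MgCl2, 1 mM DTT, phosphatase inhibitors) with [33P]-ATP for 30 min at 30° C. Phosphorylated substrate was captured on P81 phosphocellulose filters, washed in phosphoric acid and counted by scintillation.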

NCI (lung) = test: Cytotoxicity on human cells, automated nuclei counting: NCI; assay type: cell-based; conditions: exposed 24 h to 48 h, 0.1 to 25 μM
Summary of the method: as §1

DYRK1A = DYRK1A (Homo sapiens, UniProt Q13627); test: DYRK1A kinase inhibition (Woodtide substrate)

T1 sequence (Q00535 whole entry): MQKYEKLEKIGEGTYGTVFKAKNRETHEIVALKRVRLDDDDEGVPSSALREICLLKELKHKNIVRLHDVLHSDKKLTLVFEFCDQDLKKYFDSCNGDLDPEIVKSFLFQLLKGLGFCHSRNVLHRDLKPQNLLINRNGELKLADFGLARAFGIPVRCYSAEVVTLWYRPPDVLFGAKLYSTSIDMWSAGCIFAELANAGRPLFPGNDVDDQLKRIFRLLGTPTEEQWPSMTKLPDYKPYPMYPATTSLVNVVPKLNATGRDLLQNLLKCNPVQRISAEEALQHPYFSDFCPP
T1 sequence (Q15078 99-307 partner limits assumed): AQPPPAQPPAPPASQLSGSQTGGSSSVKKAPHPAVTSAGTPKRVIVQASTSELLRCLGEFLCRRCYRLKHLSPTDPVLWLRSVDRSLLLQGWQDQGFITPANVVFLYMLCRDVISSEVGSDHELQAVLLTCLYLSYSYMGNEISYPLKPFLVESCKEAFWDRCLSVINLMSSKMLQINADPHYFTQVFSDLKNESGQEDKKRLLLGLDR

SMILES | melting point [°C] | IC50 (fibroblast) [µM] | IC50 (HCT 116 (colon)) [µM] | IC50 (Huh7 (liver)) [µM] | IC50 (GSK-3αβ) [µM] | IC50 (CDK1/cyclin B) [µM] | IC50 (Caco (colon)) [µM] | IC50 (PC3 (prostate)) [µM] | IC50 (MDA-MB 231 (breast)) [µM] | IC50 (CDK5/D25) [µM] | IC50 (NCI (lung)) [µM] | IC50 (DYRK1A) [µM]
COc1ccc(NC(=O)Nc2cccc3c2C2CCCCN2C3=O)cn1 (stereo not drawn) [Compound 96, N-(6-Methoxypyridin-3-yl)-M-(6-oxo-1,2,3,4,6,10b-hexahydropyrido[2,1-a]isoindol-10-yl)urea] | 175 | 1.5 | 0.2 | 0.5 | 0.23 | 25 | 0.8 | 0.6 | 0.2 | 1.6 | 0.6 | –
O=C1c2cccc(NC(=S)Nc3cccc(Br)n3)c2C2CCCCN12 (stereo not drawn) [Compound 67, 1-(6-Bromopyridin-2-yl)-3-(6-oxo-1,2,3,4,6,10b-hexahydropyrido[2,1-a]isoindol-10-yl)thiourea] | 195 | 10 | 2 | 10 | 4.5 | – | 3 | 8 | 4 | 8.1 | 12 | 92
O=C1c2cccc(NC(=S)Nc3ncccc3Br)c2C2CC3(CCN12)SCCS3 (stereo not drawn) [Compound 74, 1-(3-Bromopyridin-2-yl)-3-(6′-oxo-3′,4′,6′,10b′-tetrahydro-1′H-spiro[[1,3]dithiolane-2,2′-pyrido[2,1-a]isoindole]-10′-yl)thiourea] | 215 | 25 | 25 | 10 | 3 | – | 20 | 15 | > 25 | > 10 | 12 | > 10
Cc1cccc(NC(=O)Nc2cccc3c2C2CC4(CCN2C3=O)OCCO4)n1 (stereo not drawn) [Compound 46] | 240 to 242 | 20 | 10 | 12 | 0.92 | – | 10 | 12 | 15 | > 10 | 12 | > 10
O=C(Nc1ccc(Br)cn1)Nc1cccc2c1C1CC3(CCN1C2=O)SCCS3 (stereo not drawn) [Compound 31, 1-(5-Bromopyridin-2-yl)-3-(6′-oxo-3′,4′,6′,10b′-tetrahydro-1′H-spiro[[1,3]dithiolane-2,2′-pyrido[2,1-a]isoindole]-10′-yl)urea] | 240 | 8 | 1.2 | 0.8 | 0.068 | – | 5 | 3 | 4 | 7.3 | 1.5 | ≥ 10
COC1CCN2C(=O)c3cccc(NC(=O)Nc4cnc(C)cn4)c3C2C1 (stereo not drawn) [Compound 59, 1-(2-methoxy-6-oxo-1,2,3,4,6,10b-hexahydropyrido[2,1-a]isoindol-10-yl)-3-(5-methylpyrazin-2-yl)urea] | 140 to 142 | 5 | 3 | 1.2 | 0.14 | – | 12 | 5 | 6 | 0.32 | 6 | > 10
O=C(Nc1cnccn1)Nc1cccc2c1C1C[C@@H](O)CCN1C2=O (stereo partly drawn) [Compound 105, 1-((2S)-2-Hydroxy-6-oxo-1,2,3,4,6,10b-hexahydropyrido[2,1-a]isoindol-10-yl)-3-(pyrazin-2-yl)urea] | 250 | 12 | 8 | 4 | 0.032 | – | > 25 | 20 | 25 | 0.084 | 8 | > 10
Cc1cccc(NC(=O)Nc2cccc3c2C2CC4(CCN2C3=O)SCCS4)n1 (stereo not drawn) [Compound 50] | 154 to 156 | 2 | 12 | 5 | 2 | – | 10 | 6 | 15 | > 10 | 15 | > 10
COc1cc(NC(=O)Nc2cccc3c2C2CC(OC)CCN2C3=O)nc2ccccc12 (stereo not drawn) [Compound 55, 1-(2-Methoxy-6-oxo-1,2,3,4,6,10b-hexahydropyrido[2,1-a]isoindol-10-yl)-3-(4-methoxyquinolin-2-yl)urea] | > 260 | 10 | 2.5 | 3 | 0.18 | – | 10 | 3 | 15 | 8.5 | 5 | > 10
Cc1cccnc1NC(=O)Nc1cccc2c1C1CC3(CCN1C2=O)OCCO3 (stereo not drawn) [Compound 45] | > 260 | > 25 | 25 | > 25 | 0.61 | – | > 25 | > 25 | > 25 | 3.1 | > 25 | > 10
O=C(Nc1ncccn1)Nc1cccc2c1C1CCCCN1C2=O (stereo not drawn) [Compound 42, 1-(6-oxo-1,2,3,4,6,10b-hexahydro-pyrido[2,1-a]isoindol-10-yl)-3-pyrimidin-2-yl-urea] | 232 | 2.5 | 4 | 0.6 | 0.75 | – | 2 | 2 | 4 | > 10 | 8 | > 10
O=C(Nc1cccc(Br)n1)Nc1cccc2c1C1CC3(CCN1C2=O)OCCO3 (stereo not drawn) [Compound 47] | 184 to 186 | 20 | 6 | 8 | 0.89 | – | 12 | 6 | 20 | > 10 | 20 | > 10

From patent US20120095022A1, “DERIVATIVES OF 10-AMINO-1,2,3,4-TETRAHYDROPYRIDO[2,1-A]ISOINDOL-6(10BH)-ONES, METHOD FOR PREPARATION THEREOF AND THERAPEUTIC USES THEREOF” (UNIVERSITE D'ORLEANS, priority 2009, published 2012)
